# From patent US20250009713A1 (priority 2021, published 2025)
# Entries after “also recorded” stand apart in the source; their conditions may differ. Like-named read-outs stand apart in the source and are kept apart here.
# Experiments:
# [1] = test system: SARS-COV-2 Japan/TY7-503/2021-Brazil_P.1 (NR-54982); assay: qRT-PCR of viral genome copies released into culture medium, Vero cells; assay type: cell-based
# [2] = test system: SARS-COV-2 (2019n-COV/USA-WA1/2020); assay type: in vivo, K18-hACE2 mice; details: for reduction of infectious virus recovered from lung tissue: 7 days, Day 7, P<0.001
# [3] = test system: SARS-COV-2 US-WA1/2020 (NR-52281); assay: qRT-PCR of viral genome copies released into culture medium, Calu-3 cells; assay type: cell-based
# [4] = test system: six strains of SARS-COV-2; assay: qRT-PCR assay, summary over six strains and two cell types; assay type: cell-based
# [5] = test system: SARS-COV-2 Japan/TY7-503/2021-Brazil_P.1 (NR-54982); assay: plaque assay of infectious virus released into culture medium, Calu-3 cells; assay type: cell-based
# [6] = test system: SARS-COV-2 US-WA1/2020 (NR-52281); assay: as above; assay type: cell-based
# [7] = test system: SARS-COV-2 Japan/TY7-503/2021-Brazil_P.1 (NR-54982); assay: plaque assay of infectious virus released into culture medium, Vero cells; assay type: cell-based
# [8] = test system: SARS-COV-2 US-WA1/2020 (NR-52281); assay: as above; assay type: cell-based
# [9] = test system: SARS-COV-2 US-WA1/2020 (NR-52281); assay: qRT-PCR of viral genome copies released into culture medium, Vero cells; assay type: cell-based
# [10] = test system: six strains of SARS-COV-2; assay: plaque assay, summary over six strains and two cell types; assay type: cell-based
# [11] = test system: SARS-COV-2 (2019n-COV/USA-WA1/2020); assay type: in vivo, K18-hACE2 mice; details: for reduction of viral load in lung: 7 days, Day 7
# [12] = test system: SARS-COV-2 Japan/TY7-503/2021-Brazil_P.1 (NR-54982); assay: qRT-PCR of viral genome copies released into culture medium, Calu-3 cells; assay type: cell-based
# [13] = test system: SARS-COV-2 (2019n-COV/USA-WA1/2020); assay type: in vivo, K18-hACE2 mice
# [14] = test system: IL-6; IL-1a; IL-1B; TNFα; TGFβ; MCP-1; assay type: in vivo, K18-hACE2 mice; details: 7 days post infection
# [15] = Severe acute respiratory syndrome coronavirus 2, virus BR, m.o.i 0.1, BIT225 added 1 hour pre-infection, 4 days post infection
# [16] = virus BR, log-logistic curve fit
# [17] = 300 mg/kg twice daily, day 5 (Experiment 3) or Day 12 (Experiment 2), 11 mice
# [18] = Experiment 1, 100 mg/kg or 300 mg/kg for 7 days, vs vehicle
# [19] = Severe acute respiratory syndrome coronavirus 2, virus WA1, m.o.i 0.1, BIT225 added 1 hour pre-infection, 4 days post infection
# [20] = virus WA1, log-logistic curve fit
# [21] = Severe acute respiratory syndrome coronavirus 2, m.o.i 0.1, BIT225 added 1 hour pre-infection, 4 days post infection
structure (smiles),measurement,setting,value
"Cn1cc(-c2cccc3cc(C(=O)NC(=N)N)ccc23)cn1 [BIT225, N-carbamimidoyl-5-(1-methyl-1H-pyrazol-4-yl)-2-naphthamide]",EC50,[1]; [15],4.03 µM
same,Max. Response (d),[1]; [16],3.53 log10
same,Slope (b),[1]; [16],1.13
same,lung plaque counts,[2]; [17],< 200 mL⁻¹
same,infectious virus in serum,[2]; [18],significant reductions
same,reduction of infectious virus recovered from lung tissue,"[2]; Experiment 1, 100 mg/kg twice daily",approximately 2000 PFU/mL
same,reduction of infectious virus recovered from lung tissue,"[2]; Experiment 1, 300 mg/kg twice daily",~4000 PFU/mL
same,EC50,[3]; [19],2.55 µM
same,Max. Response (d),[3]; [20],2.41 log10
same,Slope (b),[3]; [20],1.38
same,EC50,"[4]; Severe acute respiratory syndrome coronavirus 2, read-out: EC50 estimates, range",2.5 to 4.8 µM
same,EC50,"[4]; Severe acute respiratory syndrome coronavirus 2, qRT-PCR assay, mean over six strains and two cell types, read-out: EC50, mean",3.7 µM
same,EC50,[5]; [15],5.79 µM
same,Max. Response (d),[5]; [16],3.39 log10
same,Slope (b),[5]; [16],1.36
same,EC50,[6]; [21],3.43 µM
same,Max. Response (d),[6]; log-logistic curve fit,3.38 log10
same,Slope (b),[6]; log-logistic curve fit,1.31
same,EC50,[7]; [15],6.36 µM
same,Max. Response (d),[7]; [16],6.39 log10
same,Slope (b),[7]; [16],1.67
same,EC50,[8]; [21],4.09 µM
same,Max. Response (d),[8]; log-logistic curve fit,6.40 log10
same,Slope (b),[8]; log-logistic curve fit,1.45
same,EC50,[9]; [19],2.53 µM
same,Max. Response (d),[9]; [20],3.29 log10
same,Slope (b),[9]; [20],1.79
same,EC50,"[10]; Severe acute respiratory syndrome coronavirus 2, read-out: EC50, range",3.4 to 7.9 µM
same,EC50,"[10]; Severe acute respiratory syndrome coronavirus 2, plaque assay, mean over six strains and two cell types, read-out: EC50, mean",6.2 µM
same,lung viral loads (qRT-PCR),[11]; [17],at or below the limits of detection
same,viral load in serum,[11]; [18],significant reductions
same,reduction of viral load in lung,"[11]; Experiment 1, 100 mg/kg twice daily, vs vehicle, P<0.001",approximately 2 log 10
same,reduction of viral load in lung,"[11]; Experiment 1, 300 mg/kg twice daily, vs vehicle",approximately 3.5 log 10
same,EC50,[12]; [15],4.64 µM
same,Max. Response (d),[12]; [16],2.53 log10
same,Slope (b),[12]; [16],1.12
same,survival to day 5 (Experiment 3) or Day 12 (Experiment 2),"[13]; 11 mice, 300 mg/kg twice daily",all survived
same,difference in body weight changes between the two BIT225 dosing levels,"[13]; Experiment 1, 100 mg/kg vs 300 mg/kg twice daily, 7 days",no significant difference
same,"difference between group-mean body weight changes, vehicle lower than combined BIT225 groups","[13]; Experiment 1, day 5, P=0.01",3.8%
same,"difference between group-mean body weight changes, vehicle lower than combined BIT225 groups","[13]; Experiment 1, day 6, P=0.001",6.4%
same,mice with body weights greater than their pre-infection weights,"[13]; Experiment 1, day 7, 100 mg/kg or 300 mg/kg twice daily",all 10
same,"difference between group-mean body weight changes, vehicle lower than combined BIT225 groups","[13]; Experiment 1, day 7, 95% CI [5.6-10.7], P=0.001",8.1%
same,survival and weight gain to day 12,"[13]; Experiment 2, 300 mg/kg twice daily for 12 days, n=7, all vehicle mice died by day 9, P<0.001 log-rank, 300 mg/kg",all mice survived and continued to gain weight; also recorded: all seven mice in the BIT225 group survived
same,health and weight change to Day 5,"[13]; Experiment 3, 300 mg/kg twice daily, 5 days, n=4",remained healthy and gained weight to Day 5
same,"survival, health and weight gain through day 12","[13]; Experiment 4, 300 mg/kg twice daily starting 24 h post-infection, n=5, 300 mg/kg",remained healthy and continued gain weight as per age expectations through to day 12; also recorded: survived to Day 12
same,"survival, health and weight gain through day 12","[13]; Experiment 4, 300 mg/kg twice daily starting 24 h pre-infection, n=5, 300 mg/kg",remained healthy and continued gain weight as per age expectations through to day 12; also recorded: survived to Day 12
same,mice that died (day 11),"[13]; Experiment 4, 300 mg/kg twice daily starting 48 h post-infection, n=5, 300 mg/kg",One of the five; also recorded: one mouse
same,mice that continued to gain body weight,"[13]; across three experiments, 12 hourly oral doses of BIT225 (100 or 300 mg/kg), intranasal",21 out of 21
same,"IL-6 level, statistically significant (P<0.05) lower than vehicle control",[14]; 100 mg/kg dose group,exception
same,mean and median cytokine concentrations relative to vehicle control group,[14]; high-dose BIT225 group (300 mg/kg),less than half
same,"end-of-treatment levels of IL-6, IL-1a, IL-1B, TNFα, TGFβ and MCP-1","[14]; lung and serum, 100 or 300 mg/kg twice daily, vs vehicle control",reduced
